From patent US11873287B2, “Piperidine-2,6-dione derivatives and ulcerative colitis treating” (TIANJIN HEMAY PHARMACEUTICAL SCI-TECH CO., LTD, priority 2016, dated 2024)

How the values were obtained:
[1] = test system: DSS-Induced inflammatory Bowel Disease Models in Mice; test: DSS-induced inflammatory bowel disease model in mice (Biological Example 5, 1.3% DSS); type: in vivo, C57BL/6 mice; settings: 30 mg/Kg i.g. Q.D, 1.3% DSS days 0-5; for inhibition in vivo at 30 mg/kg: Mus musculus, po, read-out: Inhibitory Rate of Colonic Reduction
Description: (§1) 40 healthy female C57BL/6 mice having weight of 16-19 g were randomly divided into 4 groups in accordance with weight. There were 10 mice in each group (see Table 6 below). The first day of the experiment was recorded as Day 0. The administration regimen and induction regimen were detailed in Table 6. The change in weight of experimental animals was recorded every day. […] Samples of animal colonic tissues were obtained to measure the length. One-way ANOVA analysis of mice weights was performed by SPSS22. Statistical analyses between groups were performed. Mann-Whitney U non-parametric test was performed on the length of colon.
The experimental method used in the present biological example is identical to those in Biological Example 3.
One-way ANOVA analysis of mice body weights and colonic weights per length was performed by SPSS22. Statistical analyses between groups were performed.
(§2) Calculation Formula of Inhibitory Rate of Colonic Reduction: (Length of Colon in Administration Group−Length of Colon in Model Group)/(Length of Colon in Blank Group−Length of Colon in Model Group)

ICR mice = test: Acute toxicity experiment of single oral administration in mice; type: in vivo; settings: 1000 mg/Kg single oral dose
Description: The mice were fasted one day before the experiment. On the day of the experiment, 6 mice (ICR mice, body weight of 19-21 g, three females and three males) were selected in each experiment group. First of all, one female and one male were selected to orally give 1000 mg/Kg, and observed for 5-10 minutes. If there were no obvious side effects, the remaining 4 animals were orally given the same dose, and observed for 10-15 minutes. If no animal died, the animals were placed in a box to balancedly feed for 7 days. The state was observed and the body weight was recorded daily.
Observation Indexes within 0-15 Minutes After Administration
Activity: restlessness, hyperactivity
Nervous system response: tremor, spasm, convulsion, ataxia, posture abnormality, etc.
Autonomic nerve: exophthalmos, salivation, tears, urination (hematuria), diarrhea, piloerection, breathing, etc.
Observation Indexes Over 7 Days
State of Animal: lethargy, hyperactivity, excitement, hair loss, diarrhea, abnormal behavior, death, etc.

[2] = test system: DSS-Induced inflammatory Bowel Disease Models in Mice; test: DSS-induced inflammatory bowel disease model in mice (Biological Example 3, 1.0-1.5% DSS); type: in vivo, C57BL/6 mice; settings: 30 mg/Kg i.g. Q.D
Description: as §1, §2

[3] = DSS 1.0% days 0-4, 1.5% days 5-9

Row | SMILES | Length (cm, Mean ± SD) of colon [1] [cm] | inhibition in vivo at 30 mg/kg [1] [%] | Daily Body Weight of Tested Female Mice (Mean ± SD) (ICR mice; Day 1) [g] | Daily Body Weight of Tested Male Mice (Mean ± SD) (ICR mice; Day 1) [g] | Daily Body Weight of Tested Female Mice (Mean ± SD) (ICR mice; Day 2) [g] | Daily Body Weight of Tested Male Mice (Mean ± SD) (ICR mice; Day 2) [g] | Daily Body Weight of Tested Female Mice (Mean ± SD) (ICR mice; Day 3) [g] | Daily Body Weight of Tested Male Mice (Mean ± SD) (ICR mice; Day 3) [g] | Daily Body Weight of Tested Female Mice (Mean ± SD) (ICR mice; Day 4) [g] | Daily Body Weight of Tested Male Mice (Mean ± SD) (ICR mice; Day 4) [g] | Daily Body Weight of Tested Female Mice (Mean ± SD) (ICR mice; Day 5) [g] | Daily Body Weight of Tested Male Mice (Mean ± SD) (ICR mice; Day 5) [g] | Daily Body Weight of Tested Female Mice (Mean ± SD) (ICR mice; Day 6) [g] | Daily Body Weight of Tested Male Mice (Mean ± SD) (ICR mice; Day 6) [g] | Daily Body Weight of Tested Female Mice (Mean ± SD) (ICR mice; Day 7) [g] | Daily Body Weight of Tested Male Mice (Mean ± SD) (ICR mice; Day 7) [g] | Summary of toxic response of tested animals in 7 Days (ICR mice; Female) | Summary of toxic response of tested animals in 7 Days (ICR mice; Male) | other results
1 | COCCN1C(=O)CCC(N2C(=O)c3ccc(OC)c(N)c3C2=O)C1=O (stereo not shown) [Example 25, 4-amino-5-methoxy-2-(1-(2-methoxyethyl)-2,6-dioxopiperidin-3-yl)-isoindolin-1,3-dione] | 6.7 ± 0.5 | 81.8 |  |  |  |  |  |  |  |  |  |  |  |  |  |  |  |  | 
2 | COCCCCN1C(=O)CCC(N2C(=O)c3cccc(N)c3C2=O)C1=O (stereo not shown) [Example 22, 4-amino-2-(1-(4-methoxybutyl)-2,6-dioxopiperidin-3-yl)isoindolin-1,3-dione] | 6.9 ± 0.4 | 100 | 18.5 ± 0.6 | 17.1 ± 0.3 | 21.8 ± 0.3 | 22.9 ± 0.8 | 22.9 ± 0.4 | 23.5 ± 0.9 | 24.0 ± 1.0 | 25.2 ± 0.5 | 25.0 ± 0.4 | 27.2 ± 1.9 | 25.3 ± 0.6 | 27.1 ± 1.8 | 25.6 ± 0.2 | 27.4 ± 1.9 |  |  | 
3 | COCCN1C(=O)CCC(N2C(=O)c3ccc(F)cc3C2=O)C1=O (stereo not shown) [Example 21, 5-fluoro-2-(1-(2-methoxyethyl)-2,6-dioxopiperidin-3-yl)-isoindolin-1,3-dione] | 6.9 ± 0.4 | 100 |  |  |  |  |  |  |  |  |  |  |  |  |  |  |  |  | 
4 | CS(=O)(=O)CCN1C(=O)CCC(N2C(=O)c3cccc(N)c3C2=O)C1=O (stereo not shown) [Example 13, 4-amino-2-(1-(2-methylsulfonylethyl)-2,6-dioxopiperidin-3-yl)isoindolin-1,3-dione] | 6.9 ± 0.4 | 100 | 18.8 ± 1.1 | 19.6 ± 0.7 | 21.3 ± 0.3 | 23.1 ± 0.6 | 21.8 ± 0.4 | 24.4 ± 0.9 | 21.8 ± 0.4 | 24.4 ± 0.9 | 23.0 ± 0.5 | 26.5 ± 0.5 | 23.2 ± 0.9 | 28.3 ± 1.3 | 23.6 ± 0.9 | 28.4 ± 0.8 | Abnormality was not observed in 7 days of the test | Abnormality was not observed in 7 days of the test | 
5 | CCOCCN1C(=O)CCC(N2C(=O)c3cccc(F)c3C2=O)C1=O (stereo not shown) [Example 20, 4-fluoro-2-(1-(2-ethoxyethyl)-2,6-dioxopiperidin-3-yl)isoindolin-1,3-dione] | 6.9 ± 0.6 | 100 | 18.7 ± 0.4 | 18.8 ± 1.0 | 21.6 ± 1.0 | 24.0 ± 1.1 | 22.1 ± 1.0 | 25.3 ± 1.2 | 22.1 ± 1.0 | 25.3 ± 1.2 | 23.0 ± 1.4 | 26.7 ± 1.2 | 23.3 ± 0.2 | 29.0 ± 1.1 | 23.7 ± 0.8 | 29.3 ± 0.7 | Decrease of activity was observed in two animals in 10 minutes | Decrease of activity was observed in one animal 11 minutes after | 
6 | COCCN1C(=O)CCC(N2C(=O)c3cccc(F)c3C2=O)C1=O (stereo not shown) [Example 4, 4-fluoro-2-(1-(2-methoxyethyl)-2,6-dioxopiperidin-3-yl)isoindolin-1,3-dione] |  |  | 18.4 ± 0.4 | 17.6 ± 0.2 | 21.8 ± 0.5 | 22.2 ± 0.3 | 23.2 ± 0.6 | 23.6 ± 0.6 | 23.5 ± 1.2 | 24.7 ± 0.6 | 24.7 ± 0.9 | 26.7 ± 0.4 | 24.2 ± 1.2 | 27.6 ± 0.8 | 24.0 ± 0.8 | 28.2 ± 0.1 |  |  | body weights compared with model control group [2]: higher than that of the model control group; Average Length of Colon (Mean ± SD) [2, 3]: 6.3 ± 0.3 cm; Inhibitory Rate of Colonic Reduction [2, 3]: 54.5%; Body Weights of Experimental Mice (Mean ± SD) ([2]; Day 0): 17.4 ± 1.3 g; Body Weights of Experimental Mice (Mean ± SD) ([2]; Day 1): 17.6 ± 1.1 g; Body Weights of Experimental Mice (Mean ± SD) ([2]; Day 2): 18.0 ± 0.9 g; Body Weights of Experimental Mice (Mean ± SD) ([2]; Day 3): 17.8 ± 1.0 g; Body Weights of Experimental Mice (Mean ± SD) ([2]; Day 4): 17.9 ± 0.9 g; Body Weights of Experimental Mice (Mean ± SD) ([2]; Day 5): 18.1 ± 1.1 g; Body Weights of Experimental Mice (Mean ± SD) ([2]; Day 6): 17.7 ± 0.9 g; Body Weights of Experimental Mice (Mean ± SD) ([2]; Day 7): 18.1 ± 0.9 g; Body Weights of Experimental Mice (Mean ± SD) ([2]; Day 8): 17.8 ± 0.8 g; Body Weights of Experimental Mice (Mean ± SD) ([2]; Day 9): 17.6 ± 0.8 g; Body Weights of Experimental Mice (Mean ± SD) ([2]; Day 10): 17.0 ± 0.7 g; Body Weights of Experimental Mice (Mean ± SD) ([2]; Day 11): 16.7 ± 0.7 g; Body Weights of Experimental Mice (Mean ± SD) ([2]; Day 12): 17.0 ± 0.9 g
7 | COCCN1C(=O)CCC(C)(N2C(=O)c3cccc(N)c3C2=O)C1=O (stereo not shown) [Example 15, 4-amino-2-(1-(2-methoxyethyl)-3-methyl-2,6-dioxopiperidin-3-yl)isoindolin-1,3-dione] | 6.6 ± 0.4 | 72.7 |  |  |  |  |  |  |  |  |  |  |  |  |  |  |  |  | 
8 | C[S+]([O-])CCN1C(=O)CCC(N2C(=O)c3cccc(N)c3C2=O)C1=O (stereo not shown) [Example 12, 4-amino-2-(1-(2-methylsulfinylethyl)-2,6-dioxopiperidin-3-yl)isoindolin-1,3-dione] | 7.0 ± 0.5 | 109 | 18.7 ± 0.7 | 18.5 ± 0.2 | 21.8 ± 0.6 | 24.3 ± 0.6 | 22.6 ± 0.1 | 24.9 ± 0.1 | 22.6 ± 0.0 | 24.9 ± 0.1 | 23.7 ± 0.6 | 26.1 ± 0.7 | 25.3 ± 1.0 | 27.8 ± 0.7 | 25.7 ± 1.6 | 28.5 ± 0.7 | Abnormality was not observed in 7 days of the test | Abnormality was not observed in 7 days of the test | 
